Data set [1] has as its system Hs695T melanoma cell line. The data set can be described thus: OncoPanel cell proliferation assay (10-day). The class given is cell-based. To be noted: Homo sapiens, Hs 695T; for EC50: read-out: Cell Count EC50; for IC50: read-out: Cell Count IC50.
For another data set, the target named is T1, CYP2C19 (Homo sapiens, UniProt P33261).
T1 construct: Human liver microsomes; from tissue; host or cells: human liver microsomes
The data set can be described thus: Cytochrome P450 Inhibition (CYP panel). The class given is in vitro ADME. To be noted: human liver microsomes, probe omeprazole. (Liver microsomes are vesicles of endoplasmic reticulum, rich in cytochrome P450 enzymes.)

A further data set has as its target CYP2D6 (Homo sapiens, UniProt P10635). The data set can be described thus: in vitro. Conditions: human liver microsomes, probe dextromethorphan.
A further data set has as its target T2, ASH1L (h) bromodomain (Homo sapiens, UniProt Q9NR48).
T2 construct: ASH1L (h) bromodomain
The data set can be described thus: Epigenetic binding assay, Bromodomain. Conditions: for inhibition at 10 µM: read-out: % Inhibition of Control Specific Binding.

The next data set deals with T3, BRD2(1) (h) bromodomain (Homo sapiens, UniProt P25440).
T3 construct: Bromodomain
The data set can be described thus: Epigenetic binding assay, Bromodomain. Conditions: for inhibition at 10 µM: read-out: % Inhibition of Control Specific Binding; for inhibition at 10 µM / % Inhibition of Control Specific Binding: 10 μM.

In a further data set the target is T4, BRD4(1) (h) bromodomain (Homo sapiens, UniProt O60885).
T4 construct: Bromodomain
The data set can be described thus: Epigenetic binding assay, Bromodomain. To be noted: read-out: % Inhibition of Control Specific Binding.

Another data set concerns the target T5, CBX6 (h) chromodomain (Homo sapiens, UniProt O95503).
T5 construct: Recognition and specificity determinants of the human cbx chromodomains; Eurofins CEREP (France), contract laboratory
T5 sequence (O95503 11-69 limits assumed): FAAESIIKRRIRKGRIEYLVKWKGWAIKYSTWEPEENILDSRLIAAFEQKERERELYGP
The data set can be described thus: Epigenetic binding assay, Chromodomain. To be noted: read-out: % Inhibition of Control Specific Binding.

The target in a further data set is T6, PHF20(1) Tudor domain (Homo sapiens, UniProt Q9BVI0).
T6 construct: Crystal structures of the Tudor domains of human PHF20; Eurofins CEREP (France), contract laboratory
T6 sequence (Q9BVI0 4-69 limits assumed): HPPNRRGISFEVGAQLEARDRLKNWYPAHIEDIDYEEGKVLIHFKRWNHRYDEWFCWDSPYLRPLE
The data set can be described thus: Epigenetic binding assay, Tudor domain. To be noted: read-out: % Inhibition of Control Specific Binding.

The target of another data set is TIP60(h) (Homo sapiens, UniProt Q92993). The data set can be described thus: Epigenetic enzyme assay, Histone acetyltransferases (HATs). In kind it is biochemical. To be noted: read-out: % Inhibition of Control Values.
A further data set addresses HDAC1 (h) (Homo sapiens, UniProt Q13547). The data set can be described thus: Epigenetic enzyme assay, Histone deacetylase (HDACs). In kind it is biochemical. To be noted: read-out: % Inhibition of Control Values.
Data set [2] addresses T7, sirtuin 3 (h) (inhibitor effect) (Homo sapiens, UniProt Q9NTG7).
T7 sequence (Q9NTG7 1-399): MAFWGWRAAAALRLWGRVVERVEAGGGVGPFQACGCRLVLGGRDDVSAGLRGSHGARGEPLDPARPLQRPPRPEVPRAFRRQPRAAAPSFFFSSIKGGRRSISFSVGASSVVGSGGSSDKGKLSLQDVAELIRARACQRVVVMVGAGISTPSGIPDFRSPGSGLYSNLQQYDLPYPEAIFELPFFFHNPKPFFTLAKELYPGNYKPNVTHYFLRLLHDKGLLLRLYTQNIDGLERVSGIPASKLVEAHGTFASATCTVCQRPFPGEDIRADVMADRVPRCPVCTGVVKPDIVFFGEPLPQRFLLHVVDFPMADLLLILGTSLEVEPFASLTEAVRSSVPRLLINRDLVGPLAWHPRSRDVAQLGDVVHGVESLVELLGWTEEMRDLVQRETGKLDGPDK
The data set can be described thus: Epigenetic enzyme assay, Sirtuins. In kind it is biochemical. Conditions: read-out: % Inhibition of Control Values.

A further data set has as its system MLL2(h) complex. The data set can be described thus: Epigenetic enzyme assay, Methyltransferases (MTs). In kind it is biochemical, human. Conditions: for % Inhibition of Control Values: 10 μM.
The target of another data set is T8, Deacetylase, Histone 2 (Homo sapiens, UniProt Q92769).
T8 construct: host or cells: Insect Sf9 cells
The data set can be described thus: Deacetylase, Histone 2 (PanLab). The class given is biochemical. The protocol: (§1) The in vitro pharmacological studies were conducted by Eurofins PanLab (Taiwan) using the parameters shown in Table 13 with respect to appropriate literature references.

The target in data set [3] is T9, Epidermal Growth Factor (EGF) (Homo sapiens, UniProt P00533).
T9 construct: Human A431 cells; endogenous in cells; host or cells: A431 cells
The data set can be described thus: Epidermal Growth Factor (EGF) radio ligand binding. Conditions: assay year 2015, read-out: % Control Response. As for the experimental part: as §1

The next data set concerns the target T10, Histamine H2 (Homo sapiens, UniProt P25021).
T10 construct: expressed in transfected cells; host or cells: CHO-K1 cells
The data set can be described thus: Histamine H2 radio ligand binding. As for the experimental part: as §1

The mark [4] stands for this setting: Skin (Melanoma), read-out: Cell Count GI50.
The mark [5] stands for this setting: CYP2C19 (omeprazole sub.), Human liver microsomes, read-out: % Inhibition of Control Values.
Where [6] appears, read: assay year 2015, read-out: % Control Response.
Setting [7] is: assay year 2014, read-out: % Control Response.

Where two headings read alike, the source gives them in different places.

T3 sequence (P25440 74-180 limits assumed): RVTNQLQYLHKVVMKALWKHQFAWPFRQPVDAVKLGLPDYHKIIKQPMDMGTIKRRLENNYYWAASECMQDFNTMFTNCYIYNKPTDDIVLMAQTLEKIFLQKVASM
Sequence of TIP60(h) (Q92993 whole entry): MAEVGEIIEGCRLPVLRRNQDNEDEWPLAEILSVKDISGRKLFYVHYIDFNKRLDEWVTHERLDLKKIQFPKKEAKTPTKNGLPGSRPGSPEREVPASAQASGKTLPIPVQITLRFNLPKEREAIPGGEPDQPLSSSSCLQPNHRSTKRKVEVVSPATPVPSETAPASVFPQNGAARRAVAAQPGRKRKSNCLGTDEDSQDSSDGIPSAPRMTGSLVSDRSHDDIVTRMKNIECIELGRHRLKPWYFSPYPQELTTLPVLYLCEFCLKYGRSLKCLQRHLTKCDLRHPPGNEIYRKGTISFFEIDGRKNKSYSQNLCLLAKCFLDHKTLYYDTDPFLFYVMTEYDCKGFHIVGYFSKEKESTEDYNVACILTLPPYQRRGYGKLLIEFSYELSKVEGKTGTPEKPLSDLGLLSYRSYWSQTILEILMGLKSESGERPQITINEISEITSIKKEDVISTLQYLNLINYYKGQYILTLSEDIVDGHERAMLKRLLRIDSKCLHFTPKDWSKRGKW
T10 sequence (P25021 whole entry): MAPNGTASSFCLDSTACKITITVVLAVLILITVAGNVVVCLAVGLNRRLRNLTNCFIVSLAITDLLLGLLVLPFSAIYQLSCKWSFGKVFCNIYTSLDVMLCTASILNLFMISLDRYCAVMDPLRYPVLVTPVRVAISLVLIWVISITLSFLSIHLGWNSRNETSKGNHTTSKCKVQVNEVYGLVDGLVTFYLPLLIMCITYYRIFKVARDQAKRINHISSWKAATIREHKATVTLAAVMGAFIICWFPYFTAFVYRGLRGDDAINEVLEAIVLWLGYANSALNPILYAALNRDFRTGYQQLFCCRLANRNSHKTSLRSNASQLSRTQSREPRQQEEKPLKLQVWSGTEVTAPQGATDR
T9 sequence (P00533 25-1210): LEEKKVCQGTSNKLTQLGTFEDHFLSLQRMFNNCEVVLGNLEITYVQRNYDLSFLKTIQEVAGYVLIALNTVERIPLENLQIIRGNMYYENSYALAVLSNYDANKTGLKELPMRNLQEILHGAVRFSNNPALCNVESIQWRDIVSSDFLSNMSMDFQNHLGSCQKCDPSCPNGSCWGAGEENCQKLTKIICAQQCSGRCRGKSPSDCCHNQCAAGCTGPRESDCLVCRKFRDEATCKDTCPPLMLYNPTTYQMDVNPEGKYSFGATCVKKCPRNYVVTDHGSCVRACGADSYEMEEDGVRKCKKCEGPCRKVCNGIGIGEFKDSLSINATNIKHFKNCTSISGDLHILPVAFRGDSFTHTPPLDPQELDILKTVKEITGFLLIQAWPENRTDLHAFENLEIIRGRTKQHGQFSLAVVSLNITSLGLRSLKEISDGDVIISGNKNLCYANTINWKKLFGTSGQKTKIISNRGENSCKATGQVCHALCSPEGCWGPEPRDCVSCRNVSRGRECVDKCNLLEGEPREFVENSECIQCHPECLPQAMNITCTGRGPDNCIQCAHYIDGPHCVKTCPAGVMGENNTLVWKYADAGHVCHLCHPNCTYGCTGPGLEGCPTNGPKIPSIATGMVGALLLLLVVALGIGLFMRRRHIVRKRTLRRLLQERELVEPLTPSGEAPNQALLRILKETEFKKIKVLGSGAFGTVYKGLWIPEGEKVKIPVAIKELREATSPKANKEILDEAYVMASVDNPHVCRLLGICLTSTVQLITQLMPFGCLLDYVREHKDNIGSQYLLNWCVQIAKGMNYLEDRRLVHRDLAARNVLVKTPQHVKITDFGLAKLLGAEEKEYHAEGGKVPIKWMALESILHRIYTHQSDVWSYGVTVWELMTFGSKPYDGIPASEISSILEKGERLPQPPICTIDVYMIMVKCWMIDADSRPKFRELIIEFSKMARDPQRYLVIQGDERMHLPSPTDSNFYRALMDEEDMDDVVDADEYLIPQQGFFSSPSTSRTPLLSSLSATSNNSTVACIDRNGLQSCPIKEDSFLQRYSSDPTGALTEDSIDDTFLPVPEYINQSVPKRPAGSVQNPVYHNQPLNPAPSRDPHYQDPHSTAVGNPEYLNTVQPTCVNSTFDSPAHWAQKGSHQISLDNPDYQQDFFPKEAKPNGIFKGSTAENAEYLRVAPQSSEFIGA
T8 sequence (Q92769 whole entry): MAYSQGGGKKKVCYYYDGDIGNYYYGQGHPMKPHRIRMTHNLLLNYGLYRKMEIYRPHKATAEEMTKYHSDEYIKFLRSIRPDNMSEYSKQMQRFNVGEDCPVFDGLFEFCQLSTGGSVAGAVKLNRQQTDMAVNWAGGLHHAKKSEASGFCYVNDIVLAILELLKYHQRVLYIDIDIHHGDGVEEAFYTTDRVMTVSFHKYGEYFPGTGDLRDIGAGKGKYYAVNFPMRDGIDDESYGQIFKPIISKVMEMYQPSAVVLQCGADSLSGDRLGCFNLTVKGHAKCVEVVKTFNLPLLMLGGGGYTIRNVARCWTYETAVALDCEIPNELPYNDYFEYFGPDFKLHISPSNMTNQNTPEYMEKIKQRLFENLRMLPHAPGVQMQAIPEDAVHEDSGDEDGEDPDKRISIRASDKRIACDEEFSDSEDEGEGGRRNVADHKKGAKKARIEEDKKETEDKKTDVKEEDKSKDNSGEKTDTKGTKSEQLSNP
Sequence of HDAC1 (h) (Q13547 whole entry): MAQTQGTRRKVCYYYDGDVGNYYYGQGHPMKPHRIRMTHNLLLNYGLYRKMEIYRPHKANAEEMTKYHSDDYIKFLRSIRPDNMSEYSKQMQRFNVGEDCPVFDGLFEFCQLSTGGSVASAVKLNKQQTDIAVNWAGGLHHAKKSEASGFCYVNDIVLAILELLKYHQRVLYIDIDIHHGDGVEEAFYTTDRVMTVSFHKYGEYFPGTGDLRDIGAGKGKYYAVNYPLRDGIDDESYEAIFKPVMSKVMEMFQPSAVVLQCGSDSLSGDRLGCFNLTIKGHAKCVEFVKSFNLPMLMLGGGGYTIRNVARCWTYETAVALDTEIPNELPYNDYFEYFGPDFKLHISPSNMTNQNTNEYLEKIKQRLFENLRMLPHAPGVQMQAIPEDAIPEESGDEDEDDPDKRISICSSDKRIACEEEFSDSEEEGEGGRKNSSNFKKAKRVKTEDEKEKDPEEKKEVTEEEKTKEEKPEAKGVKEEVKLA
Sequence of CYP2D6 (P10635 whole entry): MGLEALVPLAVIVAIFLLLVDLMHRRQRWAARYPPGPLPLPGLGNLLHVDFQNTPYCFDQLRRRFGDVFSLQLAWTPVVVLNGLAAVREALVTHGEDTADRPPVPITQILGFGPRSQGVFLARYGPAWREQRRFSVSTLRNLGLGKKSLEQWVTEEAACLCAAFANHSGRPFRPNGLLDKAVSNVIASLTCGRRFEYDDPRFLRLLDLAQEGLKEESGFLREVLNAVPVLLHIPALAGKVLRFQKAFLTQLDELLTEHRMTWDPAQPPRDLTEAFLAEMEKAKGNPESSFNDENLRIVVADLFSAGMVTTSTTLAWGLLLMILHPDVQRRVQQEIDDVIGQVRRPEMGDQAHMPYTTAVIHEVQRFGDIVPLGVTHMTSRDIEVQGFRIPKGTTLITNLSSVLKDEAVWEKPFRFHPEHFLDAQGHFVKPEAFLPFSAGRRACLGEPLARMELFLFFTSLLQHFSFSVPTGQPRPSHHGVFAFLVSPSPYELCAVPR
T1 sequence (P33261 whole entry): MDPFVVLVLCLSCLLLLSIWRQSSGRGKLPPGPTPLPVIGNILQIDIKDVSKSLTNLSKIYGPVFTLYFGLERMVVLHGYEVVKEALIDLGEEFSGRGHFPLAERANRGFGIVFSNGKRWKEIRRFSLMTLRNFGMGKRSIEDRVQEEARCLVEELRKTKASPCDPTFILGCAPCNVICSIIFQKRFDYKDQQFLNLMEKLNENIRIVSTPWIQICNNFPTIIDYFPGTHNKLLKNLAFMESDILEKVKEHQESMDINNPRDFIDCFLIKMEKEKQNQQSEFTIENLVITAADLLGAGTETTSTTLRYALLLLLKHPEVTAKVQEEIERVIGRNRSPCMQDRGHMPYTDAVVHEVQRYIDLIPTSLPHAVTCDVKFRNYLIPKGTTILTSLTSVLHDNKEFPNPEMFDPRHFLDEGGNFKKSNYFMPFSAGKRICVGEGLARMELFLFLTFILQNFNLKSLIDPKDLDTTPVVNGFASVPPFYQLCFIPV

In general, EC50 refers to the midpoint of the concentration-response curve. For orientation: GI50 means the concentration giving 50% growth inhibition. As a reminder, the IC50 is the concentration at which inhibition is half-maximal. What is called inhibition is the change of the read-out against control, counted positive when it falls. Consider `CC(C)=CCC[C@H](C)[C@@H]1CC[C@@H](C)c2c1cc(C)c(O)c2O` [Compound 4, 7,8-dihydroxyserrulat-14-ene], for which, in data set [1] (Skin (Melanoma)), the EC50 was 5 µM. Besides, the GI50 in [1] (setting [4]) was 4.02 µM. Besides, the IC50 in data set [1] (Skin (Melanoma)) was found to be 5.18 µM. For the same compound, the inhibition at 1 µM at CYP2C19 (read-out: % inhibition) is 25 to 37%; on CYP2C19 (setting [5]), 25%; at CYP2D6, 12 to 21%. Moreover, the inhibition at 10 µM at CYP2C19 (setting [5]) was determined as 78%; at CYP2D6, 45%.
For `CC(C)=CCC[C@@H]1COc2c(C)cc(O)c3c2[C@H]1CC[C@H]3C` [Compound 3, 5,18-epoxy-8-hydroxyserrulat-14-ene], the inhibition at 10 µM was 42% at ASH1L (h) bromodomain (10 μM); 19% at BRD2(1) (h) bromodomain; 8% on BRD4(1) (h) bromodomain; 58% at CBX6 (h) chromodomain; 2% on PHF20(1) Tudor domain; -3% at TIP60(h). For the same compound, the inhibition at 10 µM at HDAC1 (h) was -1%; in [2], -3%. Also, in the data set on MLL2(h) complex, the “% Inhibition of Control Values” is listed as −15%. The remaining activity at 10 µM at Deacetylase, Histone 2 (setting [6]) stood at 12%; in data set [3], 4%; on Histamine H2 (setting [6]), 66%.
As for `CC(C)=CCC[C@@H]1C(O)Oc2c(C)cc(O)c3c2[C@H]1CC[C@H]3C` (some centres unmarked) [Compound 2, 5,18-epoxyserrulat-14-en-8,18-diol], the inhibition at 10 µM amounted to 59% at ASH1L (h) bromodomain (10 μM); 89% on BRD2(1) (h) bromodomain; 11% on BRD4(1) (h) bromodomain; 27% at CBX6 (h) chromodomain; 2% at PHF20(1) Tudor domain; 10% on TIP60(h). Besides, the inhibition at 10 µM on HDAC1 (h) was -1%; in data set [2] it was -8%; on CYP2C19 (setting [5]), 73%; against CYP2D6, 44%. The “% Inhibition of Control Specific Binding” value on BRD2(1) (h) bromodomain was “significant activity”. Moreover, the half-inhibitory concentration (IC50) on BRD2(1) (h) bromodomain (Table 9, inhibition/concentration-response curve) amounted to 22 µM; in data set [1] (Skin (Melanoma)), 9.48 µM. Further, the “% Inhibition of Control Values” in the data set with MLL2(h) complex is recorded as 3%. For the same compound, the remaining activity at 10 µM on Deacetylase, Histone 2 (setting [7]) was 44%; on Deacetylase, Histone 2 (setting [6]), 21%; in data set [3], -9%; on Histamine H2 (setting [7]) it was 24%; at Histamine H2 (setting [6]) it was -5%. In addition, the concentration for a half-maximal effect (EC50) in data set [1] (Skin (Melanoma)) came out at 9.07 µM. In addition, the 50% growth inhibitory concentration (GI50) in data set [1] (setting [4]) came to 8.99 µM. For the same compound, the inhibition at 1 µM is 25 to 37% on CYP2C19 (read-out: % inhibition), 34% at CYP2C19 (setting [5]) and 12 to 21% on CYP2D6.
Take `Nc1ncnc2c1ncn2[C@@H]1O[C@H](CSCC[C@H](N)C(=O)O)[C@@H](O)[C@H]1O` [SAH]: the IC50 on MLL2(h) complex (read-out: Reference IC50) came to 24 µM.
In the case of `CC(C)=CCC[C@H](CO)[C@@H]1CC[C@@H](C)c2c1cc(C)c(O)c2O` [Compound 1, 7,8,18-trihydroxyserrulat-14-ene], the “% Inhibition of Control Specific Binding” value on ASH1L (h) bromodomain (10 μM) and at BRD2(1) (h) bromodomain was “significant inhibitory activity” throughout. For the same compound, the inhibition at 10 µM on ASH1L (h) bromodomain (10 μM) is 95%; on BRD2(1) (h) bromodomain, 60%; at BRD4(1) (h) bromodomain, 49%; on CBX6 (h) chromodomain it was -1%; on PHF20(1) Tudor domain, 7%; at TIP60(h), 20%. The inhibition at 10 µM on HDAC1 (h) was -2%; in data set [2], -14%; on CYP2C19 (setting [5]), 90%; on CYP2D6, 45%. For the same compound, the “inhibition of binding, 1st” value was 100.6 on ASH1L (h) bromodomain (3.0E−05M); 17.0 on ASH1L (h) bromodomain (3.0E−06M); −0.2 at ASH1L (h) bromodomain (3.0E−07M); −12.3 on ASH1L (h) bromodomain (3.0E−08M); −2.6 at ASH1L (h) bromodomain (3.0E−09M). In addition, the “inhibition of binding, 2nd” value at ASH1L (h) bromodomain (3.0E−05M) is 99.6; on ASH1L (h) bromodomain (3.0E−06M) it was 28.0; on ASH1L (h) bromodomain (3.0E−07M), −2.9; at ASH1L (h) bromodomain (3.0E−08M) it was 1.8; at ASH1L (h) bromodomain (3.0E−09M) it was −8.2. Also, the “inhibition of binding, Mean” value at ASH1L (h) bromodomain (3.0E−05M) is 100.1; at ASH1L (h) bromodomain (3.0E−06M), 22.5; on ASH1L (h) bromodomain (3.0E−07M), −1.6; at ASH1L (h) bromodomain (3.0E−08M), −5.2; on ASH1L (h) bromodomain (3.0E−09M), −5.4. Besides, the IC50 at ASH1L (h) bromodomain (Table 9, inhibition/concentration-response curve, read-out: IC50) was found to be 4.2 µM; in data set [1] (Skin (Melanoma)), 1.27 µM. Besides, in the data set with MLL2(h) complex, the “% Inhibition of Control Values” came to 6%. For the same compound, the remaining activity at 10 µM on Deacetylase, Histone 2 (setting [7]) was 56%; at Deacetylase, Histone 2 (setting [6]), 34%; in data set [3], -8%; at Histamine H2 (setting [7]) it was 67%; on Histamine H2 (setting [6]) it was 73%. Besides, the GI50 in [1] (calculated on a weight-weight basis, read-out: GI50) is 0.37 µg/mL; in [1] (setting [4]) it was 1.16 µM. Moreover, the EC50 in data set [1] (Skin (Melanoma)) was 1.18 µM. Moreover, the inhibition at 1 µM on CYP2C19 (read-out: % inhibition) is 25 to 37%; at CYP2C19 (setting [5]) it was 37%; on CYP2D6 it was 12 to 21%.

The values are drawn from patent publication US11331299B2, “Medicinal use of serrulatane diterpenes” (The University of Sydney, priority 2016, dated 2022).
